From patent US12678451B2, “Cannabinoid and omega fatty acid compositions and methods of using” (GreenWay Herbal Products, LLC, priority 2019, dated 2026)

Assays:
Format in all cases: in vivo
[1] = system: cytokines induced in mice by LPS; assay: Mouse LPS cytokine model, Example 6C Study 2, omega fatty acids with or without 0.5 mg/kg 1:1 CBD:CBDA; conditions: 0.5 mg/kg (0.01 mg per mouse)
Description: (§1) A series of experiments using a mouse LPS cytokine animal model were performed. In the mouse LPS cytokine animal model, mice were injected with LPS, which induced the immune response shortly after the mice were injected with one of the potential anti-inflammatory compounds under evaluation (the “test compound”). The efficacy of the test compound was evaluated based on its ability to reduce expression levels of inflammatory cytokines that were elevated due to the immune response. The test compounds included a cannabinoid, an omega fatty acid, and a cannabinoid-omega fatty acid composition.
(§2) The mice were intraperitoneally injected with 0.1 mL of the test compound. One hour later, the mice were intraperitoneally injected with 0.1 mL of LPS in phosphate buffered saline (PBS). Four hours later, a heart puncture was performed and the blood was allowed to clot to generate serum. 0.1 mL of the serum was diluted 1:2 with PBS and stored at −80° C. The serum was then sent to a laboratory where a mouse cytokine array/chemokine array 31-plex (MD31) analysis was performed that analyzed the expression levels of the 32 cytokines/chemokines listed in Table 9, above.
(§3) For each considered test compound, the ability of the test compound to suppress each inflammatory cytokine was calculated by determining the percent suppression.
(§4) In this study, the effects of combining 1:1 CBD:CBDA with anti-inflammatory omega unsaturated fatty acids using the mouse LPS cytokine animal model were examined.
40 female C57BL/6 mice that weighed approximately 20 g each were allowed to acclimate for one week with unlimited access to food and water. On the day of the study, the mice were weighed and split into ten groups of four mice each so that the average weight of each group was as close as possible to each other. […] (9) LPS plus 37.50 mg omega fatty acids (0.1 mL injection of 375.00 mg/mL omega fatty acids diluted in MCT oil, followed 1 hour later by a 0.1 mL injection of LPS in PBS); and (10) LPS plus 37.50 mg omega fatty acids/0.01 mg 1:1 CBD:CBDA (0.1 mL injection of 375.00 mg/mL omega fatty acids/0.1 mg/mL 1:1 CBD:CBDA diluted in MCT oil, followed 1 hour later by a 0.1 mL injection of LPS in PBS).
(§5) Because the purpose of this experiment was to evaluate the effectiveness of combining 1:1 CBD:CBDA and the anti-inflammatory omega fatty acids, only cytokines that could be suppressed by one of the anti-inflammatory agents used in this study were considered.

[2] = system: cytokines induced in mice by LPS; assay: Mouse LPS cytokine model, Example 6C Study 1, omega fatty acids with or without 0.5 mg/kg 1:1 CBD:CBDA; conditions: 0.5 mg/kg (0.01 mg per mouse)
Description: as §1, §2, §3, §4
(§6) 32 female C57BL/6 mice that weighed approximately 20 g each were allowed to acclimate for one week with unlimited access to food and water. On the day of the study, the mice were weighed and split into eight groups of four mice each so that the average weight of each group was as close as possible to each other.
as §5

[3] = system: cytokines induced in mice by LPS; assay: Mouse LPS cytokine model, Example 6D, ALA, DHA and EPA omega-3 samples; conditions: 12.5 mg total omega fatty acids per mouse, DXM 0.01 mg per mouse
Description: as §1, §2, §3
as §6, with “36 female C57BL/6” for “32 female C57BL/6”, “each were obtained and allowed to” for “each were allowed to”, “one week after arrival with unlimited” for “one week with unlimited”
All of the omega fatty acid samples that were tested were diluted so the dose was 12.5 mg of total omega fatty acids per mouse. […] The omega fatty acids samples tested included: (1) pollock oil, 456 mg/mL omega unsaturated fatty acids. The pollock oil contained a mixture of anti-inflammatory omega-3, omega-7 and omega-9 unsaturated fatty acids. […] (2) Flaxseed oil, 656 mg/mL anti-inflammatory omega unsaturated fatty acids. The flaxseed oil contained a mixture of anti-inflammatory omega-3 and omega-9 unsaturated fatty acids. The omega-3 and omega-9 unsaturated fatty acids constituted 77.6% and […], respectively, of the anti-inflammatory omega fatty acids contained in the flaxseed oil. A 12.5 mg dose contained 9.7 mg of ALA in the triglyceride form. (3) Mono 2:1 DHA:EPA, 744 mg/mL omega-3 unsaturated fatty acids that were primarily DHA or EPA. A 12.5 mg dose contained 7.81 mg of DHA and 3.91 mg of EPA. The omega-3 unsaturated fatty acids were in the free mono form. […] A 12.5 mg dose contained 3.85 mg of DHA and 7.69 mg of EPA. The omega-3 unsaturated fatty acids were in the free mono form. (5) Tri 2:1 DHA:EPA, 678.9 mg/mL omega-3 unsaturated fatty acids that were primarily DHA or EPA. A 12.5 mg dose contained 7.88 mg of DHA and 3.94 mg of EPA. The omega-3 unsaturated fatty acids were in the triglyceride form. (6) Tri 1:2 DHA:EPA, 678.9 mg/mL omega-3 unsaturated fatty acids that were primarily DHA or EPA. A 12.5 mg dose contained 3.60 mg of DHA and 7.19 mg of EPA. The omega-3 unsaturated fatty acids were in the triglyceride form.

Structure (SMILES): C[C@@H]1C[C@H]2[C@@H]3CCC4=CC(=O)C=C[C@]4(C)[C@@]3(F)[C@@H](O)C[C@]2(C)[C@@]1(O)C(=O)CO [Dexamethasone, dexamethasone]
- AVERAGE SUPPRESSION [1]: 46.54%
- IFNγ suppression [1]: 70.28%
- IL-6 suppression [1]: 76.63%
- IL-7 suppression [1]: 31.25%
- IL-10 suppression [1]: 24.07%
- IL-12β p40 suppression [1]: 56.90%
- IL-15 suppression [1]: 42.45%
- IL-17 suppression [1]: 64.04%
- IP-10 suppression [1]: 44.62%
- KC suppression [1]: 79.04%
- LIF suppression [1]: 51.34%
- MCP-1 suppression [1]: 57.38%
- MIG suppression [1]: 20.57%
- MIP-1α suppression [1]: 59.54%
- MIP-1β suppression [1]: 27.89%
- RANTES suppression [1]: 46.25%
- TNF-α suppression [1]: 61.44%
- AVERAGE SUPPRESSION [2]: 20.66%
- IFNγ suppression [2]: −41.63%
- IL-1β suppression [2]: 19.75%
- IL-6 suppression [2]: 64.76%
- IL-10 suppression [2]: 19.59%
- IL-12 p70 suppression [2]: 10.64%
- IL-12β p40 suppression [2]: 39.02%
- IL-15 suppression [2]: 26.30%
- IL-17 suppression [2]: 49.77%
- IP-10 suppression [2]: 24.44%
- KC suppression [2]: 40.63%
- LIF suppression [2]: 29.55%
- MCP-1 suppression [2]: 26.32%
- MIG suppression [2]: 3.78%
- MIP-1α suppression [2]: 26.86%
- MIP-1β suppression [2]: 5.51%
- MIP-2 suppression [2]: 34.16%
- RANTES suppression [2]: −13.70%
- TNF-α suppression [2]: 26.92%
- AVERAGE SUPPRESSION [3]: 43.34%
- Eotaxin suppression [3]: 24.14%
- IL-6 suppression [3]: 76.02%
- IL-10 suppression [3]: 47.30%
- IP-10 suppression [3]: 41.65%
- KC suppression [3]: 56.41%
- MCP-1 suppression [3]: 54.99%
- MIG suppression [3]: 25.46%
- MIP-1α suppression [3]: 55.47%
- MIP-1β suppression [3]: 48.33%
- RANTES suppression [3]: 39.58%
- AVERAGE SUPPRESSION ([3]; listed as DXM): 43.34%
- AVERAGE SUPPRESSION ([3]; listed as dexamethasone): 43.34%
